Assay results as given in PMC11795524, “Melanin-Binding-Based Discovery of Topically Instilled Carbonic Anhydrase Inhibitors for Targeted Delivery and Prolonged Action in the Eye” (Molecular Pharmaceutics, 2025).
Where “and” joins values, the source holds several entries; their conditions need not be identical. Identical values can stand only once.

What was measured:
[1] = biological target: T1, human carbonic anhydrase II (Homo sapiens, UniProt P00918); assay: Multiparametric surface plasmon resonance (MP-SPR) interaction kinetics with immobilized hCAII; assay type: binding; conditions: MP-SPR, 25 °C, 1:1 model
T1 construct: purchased Sigma
Protocol: All MP-SPR measurements were conducted at 25 °C using carboxymethyl dextran hydrogel-coated (CMD-3DM) sensors (BioNavis) and were based on the protocol described by Rogez-Florent et al.[22]
Human carbonic anhydrase isoenzyme II (Sigma) was immobilized using a standard amine coupling procedure with the Amine Coupling Kit (BioNavis) and phosphate buffered saline (PBS) (20 mM phosphate buffer, 150 mM NaCl, pH 7.4) as the background buffer. Before immobilization, the sensor surface was cleaned with 2 M sodium chloride and 10 mM sodium hydroxide for 6 min at a flow rate of 30 μL/min. Then, a constant flow rate of 10 μL/min was maintained throughout the immobilization steps. The surface was activated for 7 min with 200 mM 1-ethyl-3-(3-(dimethylamino)propyl)-carbodiimide (EDC) and 50 mM N-hydroxysuccinimide, immediately followed by a 5 min injection of 45 μg/mL hCAII solution in 10 mM acetate buffer, pH 5.5. In the reference flow channel, no enzyme was immobilized. Residual activated groups of the dextran matrix were deactivated by a 7 min injection of 1 M ethanolamine HCl, pH 8.3.
For analyzing CAIs, 1% (v/v) DMSO in PBS, pH 7.4, was used as a running buffer. All CAIs were dissolved in 100% DMSO and stored as 50 mM stock solutions. These stock solutions were further diluted with the running buffer and analyzed using a 3-fold (3–1000 nM) dilution series. […] Each analyte was injected at a flow rate of 100 μL/min, with an association time of 2 min and a dissociation time of 10 min. […] Seven concentrations were measured for each CAI per cycle, and a “wash all” step with running buffer was performed at the end of each cycle to minimize the carry over effects. Each CAI were assayed in triplicate across three independent experiments.
The acquired data were processed using MP-SPR Navi Data Viewer software (version 6.7.0.1, BioNavis) employing the weighted centroid method for determining the SPR peak angular position. Signals from the reference flow channel were subtracted from the corresponding signals of the flow channel containing immobilized hCAII. The moment of sample injection was selected as the zero-time point, where both the time and MP-SPR response were set to zero. Processed data were globally fitted to a simple 1:1 interaction model using TraceDrawer software (version 1.9.2, Ridgeview Instruments AB, Sweden) to obtain kinetic parameters.

[2] = Ocular pharmacokinetics in pigmented rats (iris-ciliary body, 3H-A01); assay type: in vivo, rat; conditions: for bound fraction: pigmented tissue
From the text: Eight albino rats (RccHan/Wist) and 18 pigmented rats (HsdOla/LH) were obtained from Envigo Laboratories B.V. (The Netherlands) and were used in pharmacokinetic experiments. Additional 13 albino and 13 pigmented rats were used in generation of the analytical standards. Young adult (3–4 months; 340–445 g) rats were used.
To conduct the pharmacokinetic study, bromo-containing CAI A15 (molecular structure presented in Table 1) was conveniently converted into [^3H]-A01 through catalytic dehalogenation in tritium gas. A15 (3.05 mg, 8.2 μmol) was dissolved in dimethylformamide (0.3 mL) and exposed to 99 mbar of tritium gas in a tritium manifold system for 1.5 h in the presence of 10% palladium on carbon (0.57 mg). Following filtration, the reaction mixture underwent double lyophilization with 1 mL ethanol to eliminate labile tritium. […] The crude material was purified via high-performance liquid chromatography, employing a Reprosil-Pur C18-HD column (250 × 10 mm, 5 μm), with a mobile phase comprising 40% acetonitrile in 50 mM ammonium hydrogen carbonate. Purified fractions were subsequently combined, subjected to solid-phase extraction, and eluted with ethanol. Radiochemical analysis indicated a purity exceeding 97%, with a molar activity of 0.29 TBq/mmol (7.9 Ci/mmol) and a total activity of 850 MBq (23 mCi). The solution of 1% A01 (10 mg/mL) was prepared similarly as in the IOP study (see Table 1) except that the solution contained also 72 μg/mL of [^3H]–A01 (specific activity 27.21 mCi/mg). The solution was prepared freshly for each experiment.
Seven μL of A01 solution (10 mg/mL including 72 μg/mL of ^3H–A01) was topically applied to both eyes of albino and pigmented rats. Rats were euthanized with carbon dioxide and cervical dislocation. The eyes (n = 4) of albino rats were collected 0.5, 2, 4, and 7 h after treatment. The eyes of pigmented rats were dissected 0.5, 2, 4, 7, 24, 48, 72, 144, and 240 h after eye drop instillation. The eyes were enucleated and dissected immediately after euthanasia. Iris-ciliary body was dissected, snap frozen on dry ice, and stored at −80 °C until analysis. The analyses were conducted within 24 h from tissue dissection.
Bound and unbound radioactivity of tritiated A01 was determined from dissected iris-ciliary body samples. First, the tissues were mechanically homogenized and diluted with 0.9% sodium chloride (weight ratio 35:1). Then, cellular unbound A01 was released from the iris-ciliary body cells by freezing and thawing the solutions three times with dry ice and a water bath (37 °C). Thereafter, the supernatant and pellet were separated by centrifuging the samples for 10 min at 13,000 rpm. The pellets were dissolved by using 60 min incubation in 100 μL of Solvable (PerkinElmer, Waltham, MA, USA). The samples were then bleached with 10 μL of hydrogen peroxide for 30 min. The pellet volume was calculated as the difference between the total and supernatant volumes.
After subtracting the background radioactivity, the measured net counts per minute (cpm) were converted to disintegrations per minute (dpm) taking into account color quenching and device efficiency. Standard curves were generated for each matrix (albino and pigmented supernatants and pellets; Appendix Figure 1). Finally, unbound, bound, and total A01 concentrations (ng/mg) in the iris-ciliary body of the […] were calculated using radioactivity (nCi) per μg of instilled A01 in the eye drops. Signal to noise ratios of measured pellet and supernatant samples in liquid scintillation counting are shown in Appendix Table 3.

[3] = iris-ciliary body, single topical eye drop

In the case of `C/C(=N\Nc1ccc(S(N)(=O)=O)cc1)c1cccnc1` [A01], the ka [1] is reported as 0.57 ± 0.33 10^6 M^–1 s^–1, the kd [1] is reported as 1.45 ± 0.15 10^–2 s^–1 and the Kd ([1]; read-out: KD) is reported as 0.0369 ± 0.0234 µM. The concentration at 2 h ([2]; HsdOla/LH (pigmented), rat, topical, 7 µL of 10 mg/mL solution per eye, pigmented iris-ciliary body, 2 h after administration, read-out: bound concentration at 2 h) was roughly 500 ng/g, the concentration at 10 days ([2]; HsdOla/LH (pigmented), rat, topical, 7 µL of 10 mg/mL solution per eye, pigmented iris-ciliary body, 10 days, read-out: bound concentration C10 days) was 20 ng/g and the “exposure ratio (AUCpigm/AUCalbino), bound A01” value ([2]; iris-ciliary body) was 150 and 149.8. For the same compound, the “exposure ratio (AUCpigm/AUCalbino), total A01” value ([2]; iris-ciliary body) was 18, the “exposure ratio (AUCpigm/AUCalbino), unbound A01” value ([2]; iris-ciliary body) was 9.3 and the “AUC0-last in pigmented tissue, bound A01” value [2, 3] was 12.73 (ng/mg) × h. For the same compound, the “AUC0-last in pigmented tissue, total A01” value [2, 3] was 24.72 (ng/mg) × h, the “AUC0-last in pigmented tissue, unbound A01” value [2, 3] was 11.98 (ng/mg) × h and the “tmax (bound drug)” value ([2]; pigmented eyes) was 24 h. The “tmax(total drug)” value ([2]; pigmented eyes) was 24 h, the “Cmax, total concentration” value ([2]; pigmented iris-ciliary body, at 24 h) was 0.36 ng/mg and the “time over which slow elimination continued” value ([2]; pigmented iris-ciliary body, total drug) was no less than 10 days. For the same compound, the “time over which unbound levels were extended” value ([2]; pigmented iris-ciliary body, below quantitation limit at 6 days) was “at least 3 days”, the unbound concentrations ([2]; pigmented rat iris-ciliary body) was 10 to 800 nM and the bound fraction ([2]; for 72 h) was 37–62%. The bound fraction ([2]; later than 72 h) was “about 90%”.
